Assay results as given in ChEMBL document CHEMBL1148363, “New, non-adenosine, high-potency agonists for the human adenosine A2B receptor with an improved selectivity profile compared to the reference agonist N-ethylcarboxamidoadenosine” (J Med Chem, 2004).

target: Adenosine receptor A2a (Homo sapiens, UniProt P29274); experiment: biochemical; conditions: not given
Sequence (P29274 whole entry): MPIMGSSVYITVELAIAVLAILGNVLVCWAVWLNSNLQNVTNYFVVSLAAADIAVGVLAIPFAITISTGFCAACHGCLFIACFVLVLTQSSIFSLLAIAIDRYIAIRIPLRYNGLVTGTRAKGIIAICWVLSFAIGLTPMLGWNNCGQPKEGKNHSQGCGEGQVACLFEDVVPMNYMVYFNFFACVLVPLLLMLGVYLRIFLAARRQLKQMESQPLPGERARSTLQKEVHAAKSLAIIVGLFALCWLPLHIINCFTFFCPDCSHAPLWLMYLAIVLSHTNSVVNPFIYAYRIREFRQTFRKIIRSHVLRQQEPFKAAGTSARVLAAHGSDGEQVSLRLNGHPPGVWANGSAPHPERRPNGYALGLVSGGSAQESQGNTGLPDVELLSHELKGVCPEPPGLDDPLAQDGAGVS

Going from COc1cccc(-c2c(C#N)c(N)nc(SCc3ncc[nH]3)c2C#N)c1 to N#Cc1c(N)nc(SCc2ncc[nH]2)c(C#N)c1-c1cccc(O)c1, the Ki falls from 105 nM to 21 nM (5-fold). The second binds more tightly here.

Compared with COc1ccc(-c2c(C#N)c(N)nc(SCc3ncc[nH]3)c2C#N)cc1, N#Cc1c(N)nc(SCc2ncc[nH]2)c(C#N)c1-c1ccc(O)cc1 is 7.6-fold lower in Ki: 214 nM for the first, 28 nM for the second. The second binds more tightly here.

tested on: CHO; experiment: cells; conditions: Cricetulus griseus, read-out: pA2 (converted)

For Nc1nc2ccc(Cl)cc2c2nc(-c3ccco3)nn12 [CGS-15943], the Kb was 5.01 nM.

target: T1, Adenosine receptor A2b (Homo sapiens, UniProt P29275); experiment: not given; conditions: not given
T1 sequence (P29275 whole entry): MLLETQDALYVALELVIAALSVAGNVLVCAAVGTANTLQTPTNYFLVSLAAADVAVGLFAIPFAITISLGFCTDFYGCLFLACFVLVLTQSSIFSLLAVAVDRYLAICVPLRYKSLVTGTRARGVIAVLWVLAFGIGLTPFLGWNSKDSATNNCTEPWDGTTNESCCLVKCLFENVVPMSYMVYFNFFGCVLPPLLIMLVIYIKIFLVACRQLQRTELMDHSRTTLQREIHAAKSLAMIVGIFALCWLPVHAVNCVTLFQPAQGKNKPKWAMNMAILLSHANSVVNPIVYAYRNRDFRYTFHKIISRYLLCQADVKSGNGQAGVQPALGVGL

First: COc1cccc(-c2c(C#N)c(N)nc(SCc3ncc[nH]3)c2C#N)c1
Second: N#Cc1c(N)nc(SCc2ncc[nH]2)c(C#N)c1-c1cccc(O)c1
The EC50 of the first is 3.4-fold higher: 34 nM for the first, 10 nM for the second. The second is the more potent here.

COc1ccc(-c2c(C#N)c(N)nc(SCc3ncc[nH]3)c2C#N)cc1 and N#Cc1c(N)nc(SCc2ncc[nH]2)c(C#N)c1-c1ccc(O)cc1 are within 1.5-fold of each other in EC50: 9 nM for the first, 12 nM for the second.

target: T2, Adenosine receptor A3 (Homo sapiens) (UniProt P0DMS8); experiment: Inhibition of human adenosine A3 receptor in production of cAMP in CHO cells; assay type: functional, cell-based; conditions: not given
T2 sequence (whole entry): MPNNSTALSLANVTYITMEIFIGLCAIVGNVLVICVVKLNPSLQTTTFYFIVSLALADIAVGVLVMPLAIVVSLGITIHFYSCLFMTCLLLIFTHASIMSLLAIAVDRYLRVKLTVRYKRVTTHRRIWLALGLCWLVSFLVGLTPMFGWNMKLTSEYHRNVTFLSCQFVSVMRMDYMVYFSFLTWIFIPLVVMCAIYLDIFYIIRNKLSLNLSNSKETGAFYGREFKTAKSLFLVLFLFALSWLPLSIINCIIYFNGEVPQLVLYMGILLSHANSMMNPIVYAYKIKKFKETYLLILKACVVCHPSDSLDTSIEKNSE

Going from COc1cccc(-c2c(C#N)c(N)nc(SCc3ncc[nH]3)c2C#N)c1 to N#Cc1c(N)nc(SCc2ncc[nH]2)c(C#N)c1-c1cccc(O)c1, the Efficacy rises from 39% to 95%.

Going from N#Cc1c(N)nc(SCc2ncc[nH]2)c(C#N)c1-c1ccccc1 to N#Cc1c(N)nc(SCc2ncc[nH]2)c(C#N)c1-c1ccc(O)cc1, the Efficacy falls from 84% to 23%.

COc1ccc(-c2c(C#N)c(N)nc(SCc3ncc[nH]3)c2C#N)cc1 gave an Efficacy of 73%.

target: T3, Adenosine receptor A2b (Homo sapiens) (UniProt P29275); experiment: Stimulation of human adenosine A2B receptor in production of cAMP in CHO cells; assay type: functional, cell-based; conditions: not given
T3 sequence (whole entry): T1 sequence (P29275 whole entry)

First: COc1cccc(-c2c(C#N)c(N)nc(SCc3ncc[nH]3)c2C#N)c1
Second: N#Cc1c(N)nc(SCc2ncc[nH]2)c(C#N)c1-c1cccc(O)c1
The Efficacy of the first is lower: 68% for the first, 92% for the second.

First: N#Cc1c(N)nc(SCc2ncc[nH]2)c(C#N)c1-c1ccccc1
Second: N#Cc1c(N)nc(SCc2ncc[nH]2)c(C#N)c1-c1ccc(O)cc1
The Efficacy of the first is higher: 81% for the first, 74% for the second.

COc1ccc(-c2c(C#N)c(N)nc(SCc3ncc[nH]3)c2C#N)cc1 showed an Efficacy of 33%.

target: T4, Adenosine receptor A3 (Homo sapiens, UniProt P0DMS8); experiment: Binding affinity against human adenosine A3 receptor expressed on HEK293 cells using [125I]I-AB-MECA; assay type: cell-based; conditions: not given
T4 sequence (P0DMS8 whole entry): T2 sequence (whole entry)

COc1cccc(-c2c(C#N)c(N)nc(SCc3ncc[nH]3)c2C#N)c1 and N#Cc1c(N)nc(SCc2ncc[nH]2)c(C#N)c1-c1cccc(O)c1 are within 1.5-fold of each other in Ki: 74 nM for the first, 104 nM for the second.

Molecule N#Cc1c(N)nc(SCc2ncc[nH]2)c(C#N)c1-c1ccc(O)cc1 has a Ki of 538 nM.

target: T5, Adenosine receptor A1 (Homo sapiens) (UniProt P30542); experiment: Inhibition of human adenosine A1 receptor in production of cAMP in CHO cells; assay type: functional, cell-based; conditions: not given
T5 sequence (whole entry): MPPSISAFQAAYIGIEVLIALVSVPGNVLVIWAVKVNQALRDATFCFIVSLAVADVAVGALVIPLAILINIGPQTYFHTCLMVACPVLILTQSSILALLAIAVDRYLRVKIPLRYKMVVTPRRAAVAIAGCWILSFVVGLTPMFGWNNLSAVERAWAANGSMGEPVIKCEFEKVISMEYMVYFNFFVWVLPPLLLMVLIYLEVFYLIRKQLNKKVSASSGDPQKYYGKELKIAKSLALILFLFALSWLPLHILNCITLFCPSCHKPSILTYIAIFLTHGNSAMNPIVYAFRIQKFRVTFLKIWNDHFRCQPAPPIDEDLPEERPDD

First: COc1cccc(-c2c(C#N)c(N)nc(SCc3ncc[nH]3)c2C#N)c1
Second: N#Cc1c(N)nc(SCc2ncc[nH]2)c(C#N)c1-c1cccc(O)c1
The Efficacy of the first is lower: 80% for the first, 112% for the second.

First: N#Cc1c(N)nc(SCc2ncc[nH]2)c(C#N)c1-c1ccccc1
Second: N#Cc1c(N)nc(SCc2ncc[nH]2)c(C#N)c1-c1ccc(O)cc1
The Efficacy of the first is higher: 109% for the first, 103% for the second.

Work on COc1ccc(-c2c(C#N)c(N)nc(SCc3ncc[nH]3)c2C#N)cc1 yielded an Efficacy of 46%.

target: T6, Adenosine receptor A1 (Homo sapiens, UniProt P30542); experiment: Binding affinity against human adenosine A1 receptor expressed in CHO cells using [3H]DPCPX; assay type: cell-based; conditions: not given
T6 sequence (P30542 whole entry): T5 sequence (whole entry)

First: COc1cccc(-c2c(C#N)c(N)nc(SCc3ncc[nH]3)c2C#N)c1
Second: N#Cc1c(N)nc(SCc2ncc[nH]2)c(C#N)c1-c1cccc(O)c1
The Ki of the first is 2.2-fold lower: 2 nM for the first, 4.4 nM for the second. The first binds more tightly here.

Compared with COc1ccc(-c2c(C#N)c(N)nc(SCc3ncc[nH]3)c2C#N)cc1, N#Cc1c(N)nc(SCc2ncc[nH]2)c(C#N)c1-c1ccc(O)cc1 is 2.7-fold lower in Ki: 7 nM for the first, 2.6 nM for the second.
